Assay results reported in patent US9492471B2, “Methods of treating a disease or disorder associated with Bruton'S Tyrosine Kinase” (Celgene Avilomics Research, Inc., priority 2013, dated 2016).
Where two headings read alike, the source gives them in different places.

Legend:
ASK1/MAP3K5 = biological target: T1, ASK1/MAP3K5 (Homo sapiens, UniProt Q99683); assay: HotSpot kinase profiling; assay type: biochemical
T1 construct: purchased Reaction Biology Corp
T1 sequence (Q99683 1-1374): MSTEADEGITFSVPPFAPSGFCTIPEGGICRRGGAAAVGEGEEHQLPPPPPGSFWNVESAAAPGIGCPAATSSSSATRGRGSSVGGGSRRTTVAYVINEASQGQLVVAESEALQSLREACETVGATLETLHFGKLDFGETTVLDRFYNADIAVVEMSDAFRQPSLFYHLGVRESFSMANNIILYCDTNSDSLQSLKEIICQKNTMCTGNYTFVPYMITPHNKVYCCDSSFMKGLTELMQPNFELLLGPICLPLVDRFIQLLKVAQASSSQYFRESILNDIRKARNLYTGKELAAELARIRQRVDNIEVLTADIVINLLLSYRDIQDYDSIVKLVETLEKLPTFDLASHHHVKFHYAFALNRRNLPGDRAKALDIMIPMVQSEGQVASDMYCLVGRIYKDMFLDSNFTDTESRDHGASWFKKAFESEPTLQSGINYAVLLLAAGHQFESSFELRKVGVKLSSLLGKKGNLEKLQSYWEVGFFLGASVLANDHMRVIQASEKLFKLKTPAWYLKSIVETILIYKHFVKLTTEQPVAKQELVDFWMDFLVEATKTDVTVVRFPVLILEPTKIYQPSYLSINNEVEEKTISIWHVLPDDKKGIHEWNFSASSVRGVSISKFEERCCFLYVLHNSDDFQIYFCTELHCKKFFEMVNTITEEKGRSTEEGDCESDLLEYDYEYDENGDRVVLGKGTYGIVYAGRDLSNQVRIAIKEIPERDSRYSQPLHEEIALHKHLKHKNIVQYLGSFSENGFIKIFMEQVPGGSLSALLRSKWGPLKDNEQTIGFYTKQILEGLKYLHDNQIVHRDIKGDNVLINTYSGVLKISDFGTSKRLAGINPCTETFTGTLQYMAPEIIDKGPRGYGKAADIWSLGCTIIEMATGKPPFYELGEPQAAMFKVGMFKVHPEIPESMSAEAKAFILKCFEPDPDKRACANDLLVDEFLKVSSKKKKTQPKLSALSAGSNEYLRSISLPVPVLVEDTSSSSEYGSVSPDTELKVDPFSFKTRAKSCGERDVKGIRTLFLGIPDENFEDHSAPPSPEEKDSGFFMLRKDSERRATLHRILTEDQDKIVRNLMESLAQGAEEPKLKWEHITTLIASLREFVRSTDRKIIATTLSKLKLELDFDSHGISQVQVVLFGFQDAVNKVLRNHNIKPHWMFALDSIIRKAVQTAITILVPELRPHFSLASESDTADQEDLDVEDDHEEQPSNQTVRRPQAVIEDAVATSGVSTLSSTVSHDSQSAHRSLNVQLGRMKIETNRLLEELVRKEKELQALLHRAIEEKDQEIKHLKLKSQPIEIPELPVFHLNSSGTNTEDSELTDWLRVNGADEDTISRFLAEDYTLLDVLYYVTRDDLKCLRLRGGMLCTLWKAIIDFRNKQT
Outline: (§1)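 Radio-isotope P81 filtration format. Substrate + required cofactors in reaction buffer, kinase added, 2 h RT. Stop, wash with 0.1% phosphoric acid, detect. % inhibition vs DMSO; mean of duplicates where repeated.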

CTK/MATK = biological target: T2, CTK/MATK (Homo sapiens, UniProt P42679); assay: HotSpot kinase profiling; assay type: biochemical
T2 construct: purchased Reaction Biology Corp
T2 sequence (P42679 1-507): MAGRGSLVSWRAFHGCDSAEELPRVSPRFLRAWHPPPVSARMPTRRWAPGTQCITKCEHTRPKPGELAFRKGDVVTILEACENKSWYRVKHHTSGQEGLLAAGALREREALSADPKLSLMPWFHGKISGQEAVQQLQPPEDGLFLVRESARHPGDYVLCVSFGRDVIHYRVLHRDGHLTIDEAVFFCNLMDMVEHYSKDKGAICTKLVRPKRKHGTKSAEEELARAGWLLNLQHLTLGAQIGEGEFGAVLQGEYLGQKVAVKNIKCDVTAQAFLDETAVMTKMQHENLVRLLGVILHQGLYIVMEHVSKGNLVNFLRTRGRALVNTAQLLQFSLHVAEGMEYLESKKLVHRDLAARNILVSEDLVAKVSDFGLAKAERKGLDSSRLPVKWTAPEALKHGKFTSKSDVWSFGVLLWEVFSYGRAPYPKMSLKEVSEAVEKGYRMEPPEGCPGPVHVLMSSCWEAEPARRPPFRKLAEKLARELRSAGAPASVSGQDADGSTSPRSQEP
Outline: as §1

[1] = read-out: % Enzyme Activity (relative to DMSO controls) Run 1
[2] = read-out: % Enzyme Activity (relative to DMSO controls) Run 2

In the case of C=CC(=O)Nc1cccc(Nc2nc(Nc3ccc(OCCOC)c(F)c3)ncc2F)c1 [Compound 2], the inhibition at 3 µM (ASK1/MAP3K5) is reported as -1.62%, the remaining activity at 3 µM (ASK1/MAP3K5; [1]) is reported as 101% and the remaining activity at 3 µM (ASK1/MAP3K5; [2]) is reported as 102%. It also gave an inhibition at 3 µM (CTK/MATK) of -3.03%, a remaining activity at 3 µM (CTK/MATK; [1]) of 102% and a remaining activity at 3 µM (CTK/MATK; [2]) of 104%.
